The text below walks through data of patent EP4596537A1, “NOVEL FLUORENE DERIVATIVE COMPOUND AND USE THEREOF” (JD Bioscience Inc., priority 2022, dated 2024).

One may read the inhibition as the change of the read-out against control, counted positive when it falls. A higher inhibition goes with strong suppression.

One test relates to PDHE1α S293. Description: In vitro PDH S293 phosphorylation inhibition (Western blot) in HEK293 cells. In kind it is cell-based, human. The conditions noted are these: 5 hours, at 1 µM. As to the method:
HEK293 cells, which are human embryonic kidney cells, were seeded at a density of 2 × 10^6 in a 60 mm dish, and cultured for 24 hours. After replacing the medium with a medium comprising 0.5% FBS, the compounds prepared according to Examples 1 to 54 were treated at various concentrations. 5 hours later, the cells were scraped off and collected into a 15 mL conical tube and centrifuged at 1500 rpm for 10 minutes. The supernatant was discarded, the resultant was washed with 1× PBS, and transferred to a 1.5 mL e-tube, followed by centrifugation at 10,000 rpm for 5 minutes. The supernatant was discarded again, a lysis buffer was added, and the cells were lysed on ice for 30 minutes. The cells were vortexed every 10 minutes to completely lyse, and centrifuged again at 10,000 rpm for 15 minutes at 4°C, and the supernatant was collected. The protein in the supernatant was quantified using BCA technique, and the sample buffer was added to 20 µg of protein and allowed to react at 70°C for 5 minutes. The expression of PDHE1α S232, S293, S300, and total PDHE1α proteins was detected by Western blot, and the resulting PDH S293 phosphorylation inhibition is shown in Table 6. […]
For orientation: In western blotting, separated proteins are transferred to a membrane and probed.
On to “N'-(3-chloro-5-(trifluoromethyl)pyridin-2-yl)-2-(4-(2-fluoro-9-hydroxy-9-(trifluoromethyl)-9H-fluoren-4-yl)-1H-pyrazol-1-yl)propanehydrazide [Example 32]”, for which the “PDH S293 phosphorylation inhibition” value is “++ (50% or more of PHDE1α S293 expression inhibition rate at 1 µM)”.

The test is the same for the next values; noted with them: Homo sapiens, 5 hours.
As for `CC(C(=O)NNc1ccc(S(C)(=O)=O)cc1)n1cc(-c2cc(F)cc3c2-c2ccccc2C3(O)C(F)(F)F)cn1` (centres unmarked) [Example 22, 2-(4-(2-fluoro-9-hydroxy-9-(trifluoromethyl)-9H-fluoren-4-yl)-1H-pyrazol-1-yl)-N'-(4-(methylsulfonyl)phenyl)propanehydrazide], the inhibition at 1 µM is ≥ 50%. As to `COc1cc(-c2cnn(C(C)C(=O)NNc3ccc(F)cc3)c2)c2c(c1)C(O)(C(F)(F)F)c1ccccc1-2` (centres unmarked) [Example 2, N'-(4-fluorophenyl)-2-(4-(9-hydroxy-2-methoxy-9-(trifluoromethyl)-9H-fluoren-4-yl)-1H-pyrazol-1-yl)propanehydrazide], the inhibition at 1 µM was ≥ 50%. Same read-out and setting: as for `COc1cc(-c2cnn(C(C)C(=O)NNc3ccc(S(C)(=O)=O)cc3F)c2)c2c(c1)C(O)(C(F)(F)F)c1ccccc1-2` (centres unmarked) [Example 9, N'-(2-fluoro-4-(methylsulfonyl)phenyl)-2-(4-(9-hydroxy-2-methoxy-9-(trifluoromethyl)-9H-fluoren-4-yl)-1H-pyrazol-1-yl)propanehydrazide], the figure is ≥ 80%; as for `COc1cc(-c2cnn(C(C)C(=O)NNc3ccccn3)c2)c2c(c1)C(O)(C(F)(F)F)c1ccccc1-2` (centres unmarked) [Example 17, 2-(4-(9-hydroxy-2-methoxy-9-(trifluoromethyl)-9H-fluoren-4-yl)-1H-pyrazol-1-yl)-N'-(pyridin-2-yl)propanehydrazide], ≥ 50%. For the compound `CC(C(=O)NNc1cccnc1)n1cc(-c2cc(F)cc3c2-c2ccccc2C3(O)C(F)(F)F)cn1` (centres unmarked) [Example 30, 2-(4-(2-fluoro-9-hydroxy-9-(trifluoromethyl)-9H-fluoren-4-yl)-1H-pyrazol-1-yl)-N'-(pyridin-3-yl)propanehydrazide], the inhibition at 1 µM is ≥ 50%. The same measure, in the same setting: the value for `COc1cc(-c2cnn(C(C)C(=O)NNc3ncccn3)c2)c2c(c1)C(O)(C(F)(F)F)c1ccccc1-2` (centres unmarked) [Example 29, 2-(4-(9-hydroxy-2-methoxy-9-(trifluoromethyl)-9H-fluoren-4-yl)-1H-pyrazol-1-yl)-N'-(pyrimidin-2-yl)propanehydrazide] was ≥ 50%. As to `CC(C(=O)NN1CCCCC1)n1cc(-c2cc(F)cc3c2-c2ccccc2C3(O)C(F)(F)F)cn1` (centres unmarked) [Example 53, 2-(4-(2-fluoro-9-hydroxy-9-(trifluoromethyl)-9H-fluoren-4-yl)-1H-pyrazol-1-yl)-N-(piperidin-1-yl)propanamide], the inhibition at 1 µM is ≥ 50%. Same read-out and setting: the value for `CC(C)C(C(=O)NNc1ccc(F)cc1)n1cc(-c2cc(F)cc3c2-c2ccccc2C3(O)C(F)(F)F)cn1` (centres unmarked) [Example 44, 2-(4-(2-fluoro-9-hydroxy-9-(trifluoromethyl)-9H-fluoren-4-yl)-1H-pyrazol-1-yl)-N'-(4-fluorophenyl)-3-methylbutanehydrazide] was ≥ 50%; that for `CC(C(=O)NNc1ccccc1)n1cc(-c2cc(F)cc3c2-c2ccccc2C3(O)C(F)(F)F)cn1` (centres unmarked) [Example 4, 2-(4-(2-fluoro-9-hydroxy-9-(trifluoromethyl)-9H-fluoren-4-yl)-1H-pyrazol-1-yl)-N'-phenylpropanehydrazide] was ≥ 80%. In the case of `COc1cc(-c2cnn(C(C)C(=O)NNc3ccccc3Cl)c2)c2c(c1)C(O)(C(F)(F)F)c1ccccc1-2` (centres unmarked) [Example 12, N'-(2-chlorophenyl)-2-(4-(9-hydroxy-2-methoxy-9-(trifluoromethyl)-9H-fluoren-4-yl)-1H-pyrazol-1-yl)propanehydrazide], the inhibition at 1 µM was ≥ 50%.
